Patent US20250195508A1, “COMPOUNDS AND COMPOSITIONS FOR ANITMALARIAL THERAPEUTIC AND PROPHYLACTIC USE” (UNIVERSITY OF CENTRAL FLORIDA RESEARCH FOUNDATION, INC., priority 2022, published 2025)
Entries after “also recorded” stand apart in the source; their conditions may differ.

Columns and labels:
in vitro = in vitro ADME; conditions: mouse liver microsomes; read-out: t1/2 in mouse liver microsomes
recombinant human EPHA2 = recombinant human EPHA2 (Homo sapiens (Human), UniProt P29317); assay: Z′-LYTE FRET-based in vitro biochemical kinase assay; conditions: recombinant human EPHA2 expressed in insect cells; read-out: Human EPHA2 IC50 (nM) ± SD
Chain of recombinant human EPHA2 (P29317 24-976): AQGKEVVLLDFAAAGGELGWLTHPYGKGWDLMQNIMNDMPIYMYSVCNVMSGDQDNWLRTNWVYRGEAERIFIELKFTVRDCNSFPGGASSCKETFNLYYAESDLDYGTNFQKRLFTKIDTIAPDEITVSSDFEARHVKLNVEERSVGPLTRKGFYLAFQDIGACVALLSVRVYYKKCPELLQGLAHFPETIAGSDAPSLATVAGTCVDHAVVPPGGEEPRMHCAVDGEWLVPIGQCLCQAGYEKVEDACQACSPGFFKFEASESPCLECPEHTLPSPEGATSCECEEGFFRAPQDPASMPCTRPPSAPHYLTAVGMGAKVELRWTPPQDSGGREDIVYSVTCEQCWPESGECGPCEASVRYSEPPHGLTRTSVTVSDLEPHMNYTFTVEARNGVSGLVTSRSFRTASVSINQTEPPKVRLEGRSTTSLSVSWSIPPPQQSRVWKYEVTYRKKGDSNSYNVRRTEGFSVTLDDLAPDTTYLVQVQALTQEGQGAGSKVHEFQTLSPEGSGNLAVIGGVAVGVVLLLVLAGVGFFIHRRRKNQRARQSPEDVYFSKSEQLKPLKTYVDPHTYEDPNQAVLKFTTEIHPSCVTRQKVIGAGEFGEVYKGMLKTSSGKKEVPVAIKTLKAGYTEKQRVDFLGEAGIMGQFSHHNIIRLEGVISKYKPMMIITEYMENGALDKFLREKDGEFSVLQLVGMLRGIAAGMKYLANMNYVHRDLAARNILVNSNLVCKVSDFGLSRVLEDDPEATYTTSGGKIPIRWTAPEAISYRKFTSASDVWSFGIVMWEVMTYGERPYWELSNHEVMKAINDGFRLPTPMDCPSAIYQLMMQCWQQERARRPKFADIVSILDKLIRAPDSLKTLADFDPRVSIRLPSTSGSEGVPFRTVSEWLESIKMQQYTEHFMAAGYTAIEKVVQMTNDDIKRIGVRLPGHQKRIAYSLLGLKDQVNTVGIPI
Protocol: Several analogs were synthesized based on the structure of TL5-135 for further study. […] For the data in Table 1, compounds were subjected to in vitro biochemical kinase assays done using recombinant human ephrin type-A receptor 2 (EPHA2) (expressed in insect cells) in a Z′-LYTE® FRET-based kinase assay. P. falciparum Dd2 EC50 was determined using the standard 72 hour SYBR Green I assay (Dd2 Proliferation Assay) as known in the art. […] The structures of compoundsTL5-134, TL5-139, and TL5-145 are shown below.
In vitro biochemical kinase assays were done using recombinant human EPHA2 (expressed in insect cells) in a Z′-LYTE® FRET-based kinase assay. P. falciparum Dd2 EC50 was determined using the standard 72 h SYBR Green I assay.

Pb-Luc sporozoites = assay: Therapeutic assay, 4-day Peters test against Pb-Luc sporozoites; type: in vivo, mice; conditions: therapeutic, 4 doses of 15 mg/kg
Protocol: (§1) TL5-135 was dissolved or resuspended in a suspending vehicle consisting of 30% DMSO, 1% methylcellulose, 0.5% TWEEN-80, and 68.5% ultrapure water. GNF179 was resuspended in 30% DMSO, 30% PEG400, 5% TWEEN-80, 35% saline, and administered intravenously.
(§2) For prophylaxis assays, a single dose of […] was administrated 6 hours before infection. For therapeutic assays, in a 4-day's Peters test, 4 doses (each 15 mg/kg) were administrated 6, 18, 30, and 42 hours post infection.
(§3) The antimalarial activity was measured as a percent reduction in parasitemia from day one until day twelve post-infection.
However, the mice treated with TL5-135 as a therapeutic had about 2.4% parasitemia after 12 days post-infection (all negative control mice died between days 11-13). The parasitemia on day 21 (21 days post-infection) for the group of mice was 35%.
(§4) Groups of 5 mice were infected with 100,000 Pb-Luc sporozoites by IV injection. Prophylactic (single dose of 50 mg/kg through IV injection, 6 hour before infection) and therapeutic (4-day Peters test, 4 doses of 15 mg/kg each time were administrated post-infection at 6, 18, 30, and 42 hours post infection (hpi) and the activity of the compounds was evaluated. See FIG. 8A. The parasitemia was estimated after flow cytometric enumeration of rodent malaria parasite Pb-Luc-infected red blood cells (RBS) stained with SYBR Green I, from day 3 until 20.
(§5) TL5-135 and GNF179 antimalarial compounds were tested against Pb-Luc sporozoites. Prophylactic activity (single dose of 15 mg/kg through an IV injection, 6 hours before infection) and therapeutic activity (4-day Peters test, 4 doses of 15 mg/kg each time was administrated at 6, 18, 30, and 42 hpi of the TL5-135 antimalarial compound was evaluated. As before, groups of five mice were infected with 100,000 Pb-Luc sporozoites by IV injection. The parasitemia was estimated after flow cytometric enumeration of rodent malaria parasite Pb-Luc-infected red blood cells (RBS) stained with SYBR Green I, from day 3 until day 20. See FIG. 8B.

[1] = system: P. berghei luc sporozoites (Pb-Luc); assay: Prophylaxis assay, single IV dose 6 hours before Pb-Luc sporozoite infection; type: in vivo, mice
Protocol: as §1, §2, §3
Infection was initiated using 100,000 P. berghei luc sporozoites (Pb-Luc). The drugs were administered IV at 50 mg/kg, single dose 6 hours prior. I: infected, UI: uninfected.
as §4, §5

[2] = system: P. berghei luciferase expressing parasites; assay: Liver stage assay with luciferase expressing parasites; type: cell-based; conditions: Plasmodium berghei, read-out: Liver Stage EC50 (nM) ± SD
Protocol: (§6) P. falciparum Dd2 EC50 was determined using SYBR Green I assay. For the selectivity index ([…]) cytotoxicity was determined using CellTiter 96® AQueous MTS. The liver stage assay was performed using P. berghei luciferase expressing parasites. All assays were performed with technical quadruplicates and 3 biological replicates. Assays have a Z′ factor >0.7.

P. falciparum strain Dd2 = assay: Stage specificity assay; type: cell-based; conditions: for Stage specific action, treated at early ring stage: 400 nM (5×EC50) at 6 hours post infection for 12 hours
Protocol: Asexual stage P. falciparum cultures were synchronized by MACS magnetic column, followed 3 hours later by treatment with 5% sorbitol to select for rings. Six hours after invasion, parasites were plated onto a 96-well plate at 1% parasitemia and 1% hematocrit, maintained at 37° C. in 5% CO2, and compound was added at 5×EC50 to the 6 HPI wells. Every 12 hours, until reinvaded rings (54 HPI), thin blood smear slides for Giemsa-stain were taken, and samples were washed and fixed in 4% paraformaldehyde in PBS with 0.04% glutaraldehyde. At the conclusion of the timepoints, all samples were permeabilized with 0.25% Triton X-100 before being treated with 50 μg/mL RNase A and stained with 500 nM YOYO-1. Samples were then washed, and flow cytometric analysis was performed with a CytoFLEX S™, collecting 100,000 events per sample. Analysis was performed with FlowJo™ software Version 10.
The stage specific action of the prioritized hits was determined as follows. Synchronized cultures of P. falciparum strain Dd2 were exposed to 400 nM (5×EC50) compound at 6 hours post infection for 12 hours and fixed samples labeled with YOYO-1 dye were analyzed by flow cytometry and microscopy using Giemsa-stained thin smears.

HepG2 human liver cell = assay: CellTiter 96 AQueous MTS cytotoxicity counter-screen (selectivity index); type: cell-based
Protocol: To establish the utility of kinase inhibitor compounds synthesized in the Gray laboratory as a source of novel antimalarial activities, the libraries (containing 1,100 compounds) were screened using the well-established SYBR Green I-based fluorescence assay as known in the art. This screen yielded 34 compounds with EC50<500 nM in the CQ^R Dd2 strain. These hits were subjected to counter-screening against human HepG2 cells using CellTiter 96® AQueous (Promega™) MTS-based cell proliferation assay to identify asexual and liver stage antiplasmodial hits.
as §6

Q: With CCN1CCN(Cc2ccc(NC(=O)c3cc(Cl)cc(NC(=O)c4cncc(-c5cccs5)c4)c3)cc2C(F)(F)F)CC1 [TL5-135] as the molecule, how does the half-life (in vitro) read?
A: The half-life was 1.32 h.

Q: And the IC50 (recombinant human EPHA2)?
A: Its IC50 is greater than 10000 nM.

Q: And the “Parasitemia 12 days post-infection” value (Pb-Luc sporozoites; 12 days post-infection)?
A: Its value is “about 2.4%”.

Q: What about the “Parasitemia on day 21” value (Pb-Luc sporozoites; 21 days post-infection) of the same molecule?
A: The value was 35%.

Q: What about the “Condition of mice after prophylactic treatment” value ([1]; single dose 15 mg/kg 6 hours before infection, after 22 days) of the same molecule?
A: Its value is “still healthy and alive”.

Q: What about the Prophylactic activity ([1]; single dose 50 mg/kg IV 6 hours prior to infection with 100,000 Pb-Luc sporozoites) of the same molecule?
A: The Prophylactic activity was “has prophylactic activity; also recorded: prevent infection”.

Q: And the EC50 [2]?
A: Its EC50 is 108 ± 35 nM.

Q: What about the “Stage specific action, treated at early ring stage” value (P. falciparum strain Dd2) of the same molecule?
A: Its value is “blocks ring to trophozoite maturation”.

Q: What about the “Stage specific action, treated at early ring stage” value (P. falciparum strain Dd2; listed as TL-135) of the same molecule?
A: The value was “block ring to trophozoite maturation”.

Q: What about the “Stage specific action, added at trophozoite and schizont stages” value (P. falciparum strain Dd2; data not shown) of the same molecule?
A: Its value is “blocks maturation of asexual parasites”.

Q: And the “Selectivity Index (SI)” value (HepG2 human liver cell)?
A: The value was 116.
